Experimental data from patent publication US12616697B2, “Methods of treatment with myosin modulator” (MyoKardia, Inc., priority 2020, dated 2026).

Key:
[1] = target: T1, bovine cardiac synthetic myosin filaments (Bos taurus, UniProt Q9BE39); test: DRX/SRX ATPase rate and SRX population in cardiac synthetic myosin filaments; assay type: biochemical; details: over a range of concentrations; the two compounds compared
T1 construct: bovine cardiac synthetic myosin filaments; from tissue; host or cells: bovine heart (inferred from 'bovine cardiac'; the preparation is not described)
T1 sequence (Q9BE39 whole entry): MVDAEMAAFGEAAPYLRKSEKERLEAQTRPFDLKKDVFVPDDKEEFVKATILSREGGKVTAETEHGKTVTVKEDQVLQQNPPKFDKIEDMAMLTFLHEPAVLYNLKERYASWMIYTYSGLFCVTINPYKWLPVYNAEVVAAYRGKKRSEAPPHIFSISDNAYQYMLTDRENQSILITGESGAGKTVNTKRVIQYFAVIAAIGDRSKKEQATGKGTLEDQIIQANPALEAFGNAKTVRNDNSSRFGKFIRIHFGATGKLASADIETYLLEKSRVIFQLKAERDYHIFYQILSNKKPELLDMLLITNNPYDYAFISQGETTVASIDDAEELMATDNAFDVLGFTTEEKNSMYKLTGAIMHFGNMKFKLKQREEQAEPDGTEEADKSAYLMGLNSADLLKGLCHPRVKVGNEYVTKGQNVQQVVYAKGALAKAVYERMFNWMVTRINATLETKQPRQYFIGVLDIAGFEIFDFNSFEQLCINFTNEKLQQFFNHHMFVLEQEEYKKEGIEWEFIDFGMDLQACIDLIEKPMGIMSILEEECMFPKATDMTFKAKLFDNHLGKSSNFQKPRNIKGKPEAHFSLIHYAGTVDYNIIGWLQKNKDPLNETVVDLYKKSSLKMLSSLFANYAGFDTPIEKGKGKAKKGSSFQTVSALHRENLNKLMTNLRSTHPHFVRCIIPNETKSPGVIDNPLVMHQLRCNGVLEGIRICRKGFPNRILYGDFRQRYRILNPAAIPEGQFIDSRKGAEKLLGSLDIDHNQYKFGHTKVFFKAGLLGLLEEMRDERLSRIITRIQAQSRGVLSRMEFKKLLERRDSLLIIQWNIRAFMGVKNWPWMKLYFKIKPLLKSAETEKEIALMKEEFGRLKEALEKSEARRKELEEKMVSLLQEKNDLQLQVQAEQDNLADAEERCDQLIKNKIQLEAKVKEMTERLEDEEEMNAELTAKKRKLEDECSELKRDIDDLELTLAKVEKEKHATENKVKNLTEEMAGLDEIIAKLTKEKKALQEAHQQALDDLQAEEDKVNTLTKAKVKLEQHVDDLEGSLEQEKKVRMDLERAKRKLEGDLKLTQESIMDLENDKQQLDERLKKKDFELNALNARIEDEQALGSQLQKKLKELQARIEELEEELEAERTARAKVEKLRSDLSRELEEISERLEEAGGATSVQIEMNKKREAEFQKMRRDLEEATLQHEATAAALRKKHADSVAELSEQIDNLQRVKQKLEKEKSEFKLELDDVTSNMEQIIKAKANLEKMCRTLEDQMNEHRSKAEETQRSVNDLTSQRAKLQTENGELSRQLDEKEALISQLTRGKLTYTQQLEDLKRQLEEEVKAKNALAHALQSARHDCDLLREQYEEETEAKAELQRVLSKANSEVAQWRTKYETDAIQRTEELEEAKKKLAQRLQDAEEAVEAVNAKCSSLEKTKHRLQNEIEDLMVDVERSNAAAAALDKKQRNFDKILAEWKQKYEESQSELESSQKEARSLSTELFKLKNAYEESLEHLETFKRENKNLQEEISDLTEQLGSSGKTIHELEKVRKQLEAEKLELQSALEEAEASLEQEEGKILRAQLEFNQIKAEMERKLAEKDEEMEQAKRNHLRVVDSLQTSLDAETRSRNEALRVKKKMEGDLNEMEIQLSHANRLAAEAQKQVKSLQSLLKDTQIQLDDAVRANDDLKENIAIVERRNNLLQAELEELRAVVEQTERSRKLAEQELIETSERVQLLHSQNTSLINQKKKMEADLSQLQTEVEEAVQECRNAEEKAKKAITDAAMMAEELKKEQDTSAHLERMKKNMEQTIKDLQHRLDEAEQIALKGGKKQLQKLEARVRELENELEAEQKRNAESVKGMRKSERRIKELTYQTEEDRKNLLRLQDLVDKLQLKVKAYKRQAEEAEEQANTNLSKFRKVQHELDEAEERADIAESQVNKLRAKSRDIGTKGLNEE
T1 sequence (P85100 whole entry partner): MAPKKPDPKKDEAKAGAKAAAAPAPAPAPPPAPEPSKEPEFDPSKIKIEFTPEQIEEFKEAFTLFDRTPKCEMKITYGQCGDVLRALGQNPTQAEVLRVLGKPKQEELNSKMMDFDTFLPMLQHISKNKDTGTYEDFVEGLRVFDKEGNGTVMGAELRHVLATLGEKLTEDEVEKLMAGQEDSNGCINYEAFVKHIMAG
T1 sequence (Q3SZE5 whole entry partner): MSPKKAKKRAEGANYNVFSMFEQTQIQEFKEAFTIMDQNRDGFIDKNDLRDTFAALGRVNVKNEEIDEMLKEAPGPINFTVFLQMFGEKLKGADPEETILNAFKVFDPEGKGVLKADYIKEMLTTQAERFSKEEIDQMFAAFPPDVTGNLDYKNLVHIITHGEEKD

[2] = tested on: Yucatan mini-pigs with a heterozygous MYH7 R403Q mutation; test: Chronic MYK-581 in mini-pig genetic model of non-obstructed HCM (cMR imaging, invasive hemodynamics, dobutamine challenge); assay type: in vivo
Description: The mini-pigs were treated for at least 12 weeks and were evaluated as shown in Schematic 1 below. […] After ˜14 weeks of treatment, all pigs underwent in vivo cMR imaging for the assessment of LV function and geometry, as well as of myocardial composition via of Late Gadolinium Enhancement (LGE) and T1 mapping techniques including extracellular volume (ECV) assessments. In addition, a subset of animals (MYK: n=6, CTRL: n=5) also underwent terminal invasive hemodynamics assessments, including cardiac output (CO, via thermodilution), load-independent systolic/diastolic function (via LV pressure-volume relationships), and β-adrenergic (β-AR) cardiac reserve (via dobutamine at 5 ug/kg/min IV).
The mini-pig model can be obtained following the method disclosed in a presentation entitled “A Minipig Genetic Model of Hypertrophic Cardiomyopathy Uncovers the Pathophysiological Mechanisms of Disease Evolution”, by E. Green et al., at University of Iowa, Carver College of Medicine.

anaesthetized rats = test: Counteraction of mavacamten effects in anaesthetized rats in vivo; parameters: species or system rat
Description: (§1) Additional supportive measures, e.g., intravenous volume supplementation and/or the use of arterial vasoconstrictor agents (a adrenergic agonists) may complement the use of a β adrenergic agonist.

[3] = tested on: conscious Sprague-Dawley rats; test: Mavacamten-induced cardio-depression with positive inotropic challenges, echocardiography; assay type: in vivo, rat; details: inotropic challenge 3 hrs after MAVA 4 mg/kg PO
Description: Methods: The responsiveness of mavacamten-induced cardio-depression to positive inotropic challenges was assessed in a set of conscious Sprague-Dawley rats. In these animals, functional reserve was assessed via either dobutamine (+DOB, 10 ug/kg/min IV for 10 min, n=7) or levosimendan (+LEVO, 0.3 μmol/kg IV over […]; n=6) challenges given 3 hrs following a single-dose administration of MAVA (at 4 mg/kg, PO). Cardiac function/geometry were recorded and compared at three separate time-points/days: prior to dosing (i.e., at baseline) and at 3 hrs post-dosing both before as well as during the inotropic challenge; in order to account for the levosimendan-induced changes in loading conditions, an additional echocardiographic examination was performed following acute preload-restoration in LEVO-treated rats (+LEVO/F, 0.9% NaCl at 30 mL/kg/hr IV).
In these experiments, left-ventricular fractional shortening (FS), an index of systolic performance, as well as LV dimensions/volumes and heart rates were measured using a high-frequency transducer and parasternal long-axis transthoracic views (Vevo2100, VisualSonic). FS was defined as the end-diastole normalized change in internal dimensions/diameter of the left ventricle between end-systole (LVESd) and end-diastole (LVEDd) (i.e., FS=100·[LVEDd−LVESd]/LVEDd). LV volumes were derived assuming a Teichholz model (LVV=7·[2.4+LVid]−1·LVid3).

[4] = tested on: conscious fully-instrumented dogs with normal cardiac function; test: Cardiac reserve under acute β-AR (dobutamine) challenges in conscious instrumented dogs; assay type: in vivo, dog; details: before and under acute mavacamten treatment
Description: In addition, the effects of MAVA (at 1.5 mg/kg PO, via gavage) on cardiac reserve were evaluated via acute β-AR challenges (dobutamime: 2, 5, and 10 ug/kg/min IV) in conscious fully-instrumented (LVPV group) dogs with normal cardiac function (n=8). These challenges were performed before/after dosing (+3-hour) in control- and MAVA-treated animals both under normal cardiac physiological conditions (n=4) and under (mild) concomitant cardio-depression induced via either selective β-AR blockade (+BB, metoprolol 0.5±0.1 mg/kg PO tid; n=4) or L-type Ca2+-channel blockade (+CCB, verapamil at 5±1 mg/kg PO tid; n=4); pharmacological blockades were established for 7 days prior to the MAVA treatment. Both peak and dose-responses were evaluated at steady state.
Throughout these experiments, analog signals were digitally acquired (1000 Hz) and recorded continuously with a data acquisition/analysis system (IOX; EMKA Technologies). Heart rate (HR), end-systolic (ESP) and end-diastolic pressures (EDP), as well as the peak rates of pressure rise/decline (dP/dtmax and dP/dtmin), the contractility index (CI: dP/dt/P at dP/dtmax), and the time-constant of myocardial relaxation (tau1/2, time for 50% decay from dP/dtmin) were derived from the LV pressure signal. Meanwhile, the end-systolic (ESV) and end-diastolic volumes (EDV) were measured from the LV volume signal derived from the implanted myocardial crystals. LV volumes were derived assuming a Teichholz model, and stroke volume (SV=EDV−ESV), ejection fraction (EF=SV/EDV), as well as cardiac output (CO=SV·HR) were calculated; in a subset of animals, SV and CO values were verified from data derived from the implanted aortic flow […]. […] The slopes of the preload-recruitable stroke work (PRSW; stroke work vs. EDV) and the end-systolic pressure-volume relationships (ESPVR; end-systolic elastance, Ees) were derived by software using linear models (IOX; EMKA Technologies), and were used as load-independent inotropic indices. Ventricular load was estimated by the effective arterial elastance (Ea=ESP/SV). […]

[5] = tested on: isolated adult rat ventricular myocytes; test: Counteraction of mavacamten effects in isolated myocytes in vitro; assay type: cell-based
Description: as §1

Question: For `CC(C)n1c(=O)cc(N[C@@H](C)c2cccc(F)c2)[nH]c1=O` [MYK-581, (S)-6-((1-(3-fluorophenyl)ethyl)amino)-3-isopropylpyrimidine-2,4(1H,3H)-dione], which “DRX ATPase rate and SRX ATPase Rate (as a fraction of control)” value [1] is on record?
Answer: similar

Question: What about the “CO (cardiac output)” value ([2]; chronic treatment) of the same molecule?
Answer: preserving CO

Question: And the “CO change, β-AR cardiac reserve” value ([2]; dobutamine challenge, control +26±2)?
Answer: +60±8%

Question: And the T1-times ([2]; vs control)?
Answer: lower T1-times

Question: How did the “pharmacologic effects of mavacamten counteracted” value (anaesthetized rats) turn out when `CC(CCc1ccc(O)cc1)NCCc1ccc(O)c(O)c1` (stereo not drawn) [dobutamine] was run?
Answer: can be counteracted

Question: And the “echocardiography-derived indices of systolic function after mavacamten” value [3]?
Answer: successfully rescued/restored

Question: And the stroke-volume/cardiac output recruitments [4]?
Answer: comparable stroke-volume/cardiac output recruitments

Question: How did the “pharmacologic effects of mavacamten counteracted” value [5] turn out when `CC(C)NCC(O)c1ccc(O)c(O)c1` (stereo not drawn) [isoproterenol] was run?
Answer: can be counteracted

Question: For `C[C@@H]1CC(=O)NN=C1c1ccc(NN=C(C#N)C#N)cc1` [levosimendan], which “echocardiography-derived indices of systolic function after mavacamten” value [3] is on record?
Answer: successfully rescued/restored
